The results in this text go back to ChEMBL document CHEMBL1133338, “Novel 3-(4-piperidinylthio)-1H-indoles as potent nonopioid orally active central analgesics” (Bioorg Med Chem Lett, 2000).

Assay [1] concerns Mus musculus. The experiment in a line: Compound (at 30 mg/kg) was evaluated in vivo for the inhibition of painful reactions in mice in the hot plate test. It counts as functional.
Assay [2] deals with Mus musculus. Description: In vivo analgesic activity in phenylbenzoquinone-induced writhing test in mice. It counts as functional.
Assay [3] concerns Mus musculus. The experiment in a line: In vivo analgesic activity in hot plate test in mice. Type of assay: functional.
In assay [4] the test system is Mus musculus. The experiment in a line: Compound (at 30 mg/kg) was evaluated in vivo for the inhibition of phenylbenzoquinone induced painful reactions in mice. Type of assay: functional.
For assay [5], the system named is Rattus norvegicus. Description: Compound after peroral administration was tested for inhibition of kaolin-induced arthritis in rats. Type of assay: functional. Particulars: po.
Assay [6] addresses Sodium-dependent serotonin transporter (Rattus norvegicus, UniProt P31652). Description: Binding affinity on Serotonin transporter was determined in rat.
Assay [7] relates to Rattus norvegicus. The experiment in a line: Compound (at 60 mg/kg perorally) was tested for inhibition of Freund's adjuvant-induced polyarthritis in rats. It counts as functional. Particulars: route oral.
Assay [8] concerns Mus musculus. Description: Effective dose in mice after intraperitoneal administration by tail pinch test. Type of assay: functional. Conditions: ip.
The species named for assay [9] is Mus musculus. The experiment in a line: Effective dose in mice by tail pinch test.
Assay [10] is filed under the species Rattus norvegicus. Description: Compound was tested for inhibition of Freund's adjuvant-induced polyarthritis in rats. Type of assay: functional.
For assay [11], the species on record is Rattus norvegicus. The experiment in a line: Compound was tested for inhibition of kaolin induced arthritis in rats.

Sodium-dependent serotonin transporter, sequence (P31652 whole entry): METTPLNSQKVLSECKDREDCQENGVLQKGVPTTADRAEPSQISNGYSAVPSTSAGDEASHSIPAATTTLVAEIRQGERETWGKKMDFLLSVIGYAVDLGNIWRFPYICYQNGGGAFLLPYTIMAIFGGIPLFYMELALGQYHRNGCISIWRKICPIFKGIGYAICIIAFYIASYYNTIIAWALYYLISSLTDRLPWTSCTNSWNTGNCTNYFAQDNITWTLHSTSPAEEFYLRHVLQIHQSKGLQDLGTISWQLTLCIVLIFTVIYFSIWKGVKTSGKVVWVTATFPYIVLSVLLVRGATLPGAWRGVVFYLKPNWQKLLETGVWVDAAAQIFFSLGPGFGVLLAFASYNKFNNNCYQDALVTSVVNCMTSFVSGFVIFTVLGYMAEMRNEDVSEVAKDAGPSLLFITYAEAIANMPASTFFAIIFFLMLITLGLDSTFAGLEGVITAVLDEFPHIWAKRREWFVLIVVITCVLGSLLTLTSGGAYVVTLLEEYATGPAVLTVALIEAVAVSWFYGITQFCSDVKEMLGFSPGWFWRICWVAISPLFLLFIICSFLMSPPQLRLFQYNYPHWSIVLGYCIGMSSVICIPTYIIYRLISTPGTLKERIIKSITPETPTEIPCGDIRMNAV

Molecule `Clc1ccc2[nH]cc(SC3CCN(CCc4ccccc4)CC3)c2c1` had an inhibition in vivo at 30 mg/kg in the assay with Mus musculus [1] of 14%. In the assay with Mus musculus [2], this molecule registered an ED50 of 8.9 mg/kg.

In turn, `CN1CCC(Sc2c[nH]c3ccc(I)cc23)CC1` came in with a median effective dose (ED50) in the assay with Mus musculus [2] of 54.2 mg/kg.

In the case of `CON1CCC(Sc2c[nH]c3ccc(Br)cc23)CC1`, the ED50 in the assay on Mus musculus [2] is 1.6 mg/kg; with Mus musculus [3], 3.2 mg/kg.

In the assay with Mus musculus [4], `Cc1ccc2[nH]cc(SC3CCN(C)CC3)c2c1` registered an inhibition in vivo at 30 mg/kg of 25%.

As for `CCOC(=O)N1CCC(Sc2c[nH]c3ccc(Br)cc23)CC1`, the values for the ED50 in the assay on Mus musculus [2] and in the assay on Mus musculus [3] were 6.3 mg/kg and 27.3 mg/kg, respectively.

Regarding `CCN1CCC(Sc2c[nH]c3ccc(Cl)cc23)CC1`, in the assay with Mus musculus [3], the 50% effective dose (ED50) is 33.3 mg/kg. In the assay on Mus musculus [4], the inhibition in vivo at 30 mg/kg is 42%.

Consider `Cc1[nH]c2ccc(F)cc2c1SC1CCNCC1`, for which the 50% effective dose (ED50) turned out to be 5.9 mg/kg with Mus musculus [2] and 12.7 mg/kg with Mus musculus [3].

Molecule `CN1CCC(Sc2c[nH]c3ccccc23)CC1` had an inhibition in vivo at 30 mg/kg in the assay on Mus musculus [4] of 26%.

As to `Cc1[nH]c2ccc(Br)cc2c1SC1CCNCC1`, the median effective dose (ED50) with Mus musculus [2] was 0.7 mg/kg; in the assay with Mus musculus [3], 3.1 mg/kg.

As for `Cc1[nH]c2ccc(Cl)cc2c1SC1CCNCC1`, the results for the ED50 in the assay with Mus musculus [2] and in the assay with Mus musculus [3] were 0.8 mg/kg and 9.9 mg/kg, respectively.

In the assay on Mus musculus [4], `CN1CCC([S+]([O-])c2c[nH]c3ccc(Cl)cc23)CC1` (stereo not given) displayed an inhibition in vivo at 30 mg/kg of 44%.

As for `CN1CCC(Sc2c[nH]c3ccc(O)cc23)CC1`, in the assay on Mus musculus [4], the inhibition in vivo at 30 mg/kg worked out at 9%.

Take `Clc1ccc2[nH]cc(SC3CCNCC3)c2c1`: the median effective dose (ED50) amounted to 0.3 mg/kg with Mus musculus [2] and 1.2 mg/kg with Mus musculus [3].

On to `Cc1[nH]c2ccc(F)cc2c1SC1CCN(C)CC1`, for which the ED50 in the assay on Mus musculus [2] worked out at 35.6 mg/kg.

`CN1CCC(Sc2cn(C)c3ccc(Br)cc23)CC1`: the ED50 came out at 5.4 mg/kg with Mus musculus [2] and 8.6 mg/kg in the assay with Mus musculus [3].

With `CN1CCC(Sc2c[nH]c3ccc(Cl)cc23)CC1`, the ED50 in the assay with Rattus norvegicus [5] was 4.9 mg/kg; with Mus musculus [2], 4 mg/kg; with Mus musculus [3] it was 16.9 mg/kg; in the assay with Mus musculus [8], 25.3 mg/kg. Moreover, the Ki in assay [6] was 3.01 nM. Moreover, the inhibition in vivo at 60 mg/kg in the assay with Rattus norvegicus [7] worked out at 62%.

In the case of `O=CN1CCC(Sc2c[nH]c3ccc(Br)cc23)CC1`, the inhibition in vivo at 30 mg/kg with Mus musculus [4] was 31%.

As to `CON1CCC(Sc2cn(C)c3ccc(C(=O)O)cc23)CC1`, the inhibition in vivo at 30 mg/kg in the assay with Mus musculus [4] came to 25%.

The molecule `CC(C)c1ccc2[nH]cc(SC3CCN(C)CC3)c2c1` had an inhibition in vivo at 30 mg/kg in the assay with Mus musculus [4] of 48%.

Turning to `O=S(=O)(c1c[nH]c2ccc(Cl)cc12)C1CCNCC1`, the ED50 in the assay on Mus musculus [2] is 12.5 mg/kg; in the assay with Mus musculus [3], 8.4 mg/kg.

For the molecule `CC(=O)N1CCC(Sc2c[nH]c3ccc(Cl)cc23)CC1`, the median effective dose (ED50) with Mus musculus [2] is 2.9 mg/kg; in the assay with Mus musculus [3], 3.8 mg/kg.

Take `Cc1[nH]c2ccc(C(F)(F)F)cc2c1SC1CCNCC1`: the inhibition in vivo at 30 mg/kg in the assay with Mus musculus [1] amounted to 41%. This molecule also gave a median effective dose (ED50) with Mus musculus [2] of 19.4 mg/kg.

`CC(C)N1CCC(Sc2c[nH]c3ccc(Cl)cc23)CC1` gave an inhibition in vivo at 30 mg/kg in the assay with Mus musculus [4] of 38%.

On to `Clc1ccc2[nH]cc(SC3CCN(Cc4ccccc4)CC3)c2c1`, for which 30 mg/kg produced 32% inhibition in vivo with Mus musculus [1]. For the same molecule, it took a dose of 9.7 mg/kg to reach the 50% effect level in the assay with Mus musculus [2] (ED50).

`CN1CCC(Sc2cn(C)c3ccc(Cl)cc23)CC1`: the ED50 with Mus musculus [2] is 3.9 mg/kg; in the assay on Mus musculus [3], 9.3 mg/kg.

`CN1CCC(S(=O)(=O)c2c[nH]c3ccc(Cl)cc23)CC1`: the median effective dose (ED50) was 5.4 mg/kg with Mus musculus [2] and 16 mg/kg in the assay on Mus musculus [3].

As to `CC(=O)N1CCC(Sc2c[nH]c3ccc(Br)cc23)CC1`, the median effective dose (ED50) with Mus musculus [2] is 2.9 mg/kg; in the assay on Mus musculus [3], 2.8 mg/kg.

Regarding `CCCC(=O)N1CCC(Sc2c[nH]c3ccc(Cl)cc23)CC1`, the 50% effective dose (ED50) with Mus musculus [2] turned out to be 8.9 mg/kg; in the assay on Mus musculus [3] it was 22.7 mg/kg.

In turn, `COc1ccc2[nH]cc(SC3CCN(C)CC3)c2c1` returned a median effective dose (ED50) in the assay with Mus musculus [2] of 24.9 mg/kg.

Regarding `Clc1ccc(-c2[nH]c3ccc(Cl)cc3c2SC2CCNCC2)cc1`, the inhibition in vivo at 30 mg/kg in the assay on Mus musculus [4] amounted to 26%.

Take `CON1CCC(Sc2c[nH]c3ccc(Cl)cc23)CC1`: the results for the ED50 in the assay with Mus musculus [2] and in the assay with Mus musculus [3] were 1.4 mg/kg and 2.3 mg/kg, respectively.

Take `CN1CC[C@]23c4c5ccc(O)c4O[C@H]2[C@@H](O)C=C[C@H]3[C@H]1C5` [MORPHINE]: the ED50 in the assay on Mus musculus [3] came to 28.9 mg/kg; in the assay listed under Mus musculus [9] it was 15 mg/kg; in the assay listed under Rattus norvegicus [11], 4.4 mg/kg. Besides, in the assay filed under Rattus norvegicus [10], the Dose is 5.2 mg/kg.

`CCCCn1cc(SC2CCN(C)CC2)c2cc(Br)ccc21` returned an inhibition in vivo at 30 mg/kg in the assay with Mus musculus [4] of 21%.

In the assay on Mus musculus [4], `Cc1c(SC2CCNCC2)c2cc(Cl)ccc2n1Cc1ccc(Cl)cc1` returned an inhibition in vivo at 30 mg/kg of 27%.
